Assay results as given in article PMC5717651, “Biotransformation of labdane and halimane diterpenoids by two filamentous fungi strains” (Royal Society Open Science, 2017).
Where two headings read alike, the source gives them in different places.

Assays:
[1] = target: T1, human recombinant acetylcholinesterase (Hr-AChE) (Homo sapiens, UniProt P22303); assay: biochemical; settings: for inhibitory activity on Hr-AChE (in words): authors' verbal rating; for inhibition at 100 µM: pH 8, at 100 µM compound, 70 µM acetylcholine, ammonium acetate 15.0 mM, pH 8.0, n = 3, read-out: % inhibition ± s.e.m. ICER-AChEhr
T1 construct: purchased Sigma-Aldrich C1682
Experimental: (§1) Hr-AChE-ICER and Hu-BChE-ICER were prepared by covalent enzyme immobilization onto fused silica capillary tubing (30 cm × 0.375 mm × 100 µm I.D.) according to a previously described procedure. Resulting ICERs were connected to an on-flow LC-IT-MS/MS system (EMU FAPESP—Proc. PROEM 2014/50299-5) as biochromatography columns.
(§2) LC system (Shimadzu, Kyoto, Japan) consisted of two Nexera LC-20ADXR pumps, an SIL 20A auto sampler, with a 50 µl loop, a DGU-20A5 degasser and a CBM-20 interface. LC equipment was connected to an AmaZon Speed Ion Trap Mass Spectrometer equipped with an ESI source, operating in positive ion mode. Data were acquired using software Data Analysis 4.1 (Bruker Daltonics). LC analyses were performed at 25°C. Enzymatic reactions were monitored by direct quantification of choline (Ch, [M + H]^+ m/z 104), the hydrolysis product of ACh.
(§3) Samples were solubilized in methanol to provide a stock solution of 1.00 mM for each compound. Assay samples (100 µl) were prepared using 10 µl of stock solution (100 µM final concentration), 20 µl of acetylcholine solution (70 µM final concentration) and 70 µl of ammonium acetate solution (15.0 mM, pH 8.0). Solutions were prepared in duplicate and 20 µl aliquots were used for injection. Negative (absence of ACh) and positive (presence of ACh and absence of ligand) controls were analysed between each AChEI sample.

[2] = target: T2, human serum butyrylcholinesterase (Hu-BChE) (Homo sapiens, UniProt P06276); assay: On-flow Hu-BChE-ICER-IT-MS/MS screening assay (hydrolysis of acetylcholine, choline quantified); format: biochemical; settings: for inhibitory activity on Hu-BChE (in words): authors' verbal rating
T2 construct: purchased Sigma-Aldrich B4186; host or cells: human serum
Experimental: as §1, §2, §3

[3] = immobilized Hr-AChE capillary reactor (ICER), read-out: IC50 AChEhr
[4] = at 100 µM compound, 70 µM acetylcholine, ammonium acetate 15.0 mM, pH 8.0, n = 3, read-out: % inhibition ± s.e.m. ICER-BChEhu

T2 sequence (P06276 29-602): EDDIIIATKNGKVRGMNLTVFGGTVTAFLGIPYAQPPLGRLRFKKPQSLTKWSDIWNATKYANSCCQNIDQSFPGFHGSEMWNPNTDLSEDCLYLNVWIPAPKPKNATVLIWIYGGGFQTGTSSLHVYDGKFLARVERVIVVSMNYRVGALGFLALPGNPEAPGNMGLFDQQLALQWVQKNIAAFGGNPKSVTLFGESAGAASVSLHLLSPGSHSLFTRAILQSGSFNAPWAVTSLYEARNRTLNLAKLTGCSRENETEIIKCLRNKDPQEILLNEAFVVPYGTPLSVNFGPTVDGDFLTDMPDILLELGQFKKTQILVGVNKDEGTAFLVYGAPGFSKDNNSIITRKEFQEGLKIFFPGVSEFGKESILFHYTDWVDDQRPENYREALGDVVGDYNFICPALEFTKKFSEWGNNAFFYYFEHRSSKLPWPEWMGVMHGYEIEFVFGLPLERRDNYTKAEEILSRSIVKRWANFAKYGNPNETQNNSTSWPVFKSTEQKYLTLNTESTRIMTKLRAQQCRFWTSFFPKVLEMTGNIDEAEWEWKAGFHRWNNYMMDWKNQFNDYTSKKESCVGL
T1 sequence (P22303 32-614): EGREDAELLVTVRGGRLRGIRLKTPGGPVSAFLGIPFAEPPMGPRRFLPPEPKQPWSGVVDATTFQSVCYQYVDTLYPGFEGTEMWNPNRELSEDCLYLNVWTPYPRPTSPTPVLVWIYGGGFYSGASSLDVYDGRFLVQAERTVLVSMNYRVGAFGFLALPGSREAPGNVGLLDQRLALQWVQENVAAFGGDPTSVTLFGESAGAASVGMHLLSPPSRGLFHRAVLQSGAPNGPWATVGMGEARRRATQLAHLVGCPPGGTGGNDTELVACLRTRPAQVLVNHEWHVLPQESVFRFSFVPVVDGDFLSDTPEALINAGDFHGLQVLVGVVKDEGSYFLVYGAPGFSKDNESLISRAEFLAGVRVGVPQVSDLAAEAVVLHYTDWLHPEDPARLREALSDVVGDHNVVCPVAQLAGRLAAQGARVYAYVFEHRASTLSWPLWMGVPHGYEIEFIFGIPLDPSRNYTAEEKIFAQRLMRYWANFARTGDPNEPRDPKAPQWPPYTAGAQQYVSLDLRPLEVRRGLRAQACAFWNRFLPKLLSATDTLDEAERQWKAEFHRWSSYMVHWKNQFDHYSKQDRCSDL

| SMILES | inhibitory activity on Hr-AChE (in words) [1] | IC50 [1, 3] [µM] | inhibition at 100 µM [1] [%] | inhibition at 100 µM [2, 4] [%] | inhibitory activity on Hu-BChE (in words) [2] | IC50 [1] [µM] | inhibition at 100 µM ([2]; pH 8, read-out: % inhibition ± s.e.m. ICER-BChEhu) [%] |
| --- | --- | --- | --- | --- | --- | --- | --- |
| C/C(=C\C(=O)O)CC[C@]1(C)C2=CCC[C@@](C)(C(=O)O)[C@H]2CC[C@H]1C [Compound 5, (+)-(4R, 5S, 8R, 9S)-18-Carboxy-ent-halima-1(10),13-(E)-dien-15-oic acid] | inactive | > 100 | ~50 | 8.17 ± 1.32 |  |  |  |
| C/C(=C\C(=O)O)CC[C@]1(C)C2=CCC[C@@](C)(CO)[C@H]2CC[C@H]1C [Compound 1, (+)-(4R, 5S, 8R, 9S)-18-Hydroxy-ent-halima-1(10),13-(E)-dien-15-oic acid] | weak inhibitory activity | > 100 | 24.96 ± 0.04 | 36.09 ± 0.28 | weak inhibitory activity |  |  |
| C/C(=C\C(=O)O)CC[C@]1(C)C2=CC(=O)C[C@@](C)(CO)[C@H]2CC[C@H]1C [Compound 3, (+)-(4R, 5S, 8R, 9S)-2-Oxo-18-hydroxy-ent-halima-1(10),13-(E)-dien-15-oic acid] |  | > 100 | 30.13 ± 0.3 | 14.5 ± 2.47 |  |  |  |
| C/C(=C\C(=O)O)CC[C@@H]1[C@@]2(C)CC[C@H](O)C(C)(C)[C@@H]2CC[C@@]1(C)O (relative stereo) [Compound 8, (+)-(3S*, 5S*, 8R*, 9R*, 10S*)-Lab-13-en-3β,8α-diol-15-oic acid] | weakly active | 95.7 ± 1.7 | ~50 | 13.3 ± 2.62 |  |  |  |
| C/C(=C\C(=O)O)CC[C@]1(C)C2=CCCC(CO)(CO)[C@H]2CC[C@H]1C [Compound 4, (+)-(5S, 8R, 9S)-18,19-Dihydroxy-ent-halima-1(10),13-(E)-dien-15-oic acid] |  | > 100 | 39.4 ± 3.86 | 14.5 ± 2.42 |  |  |  |
| C/C(=C\C(=O)O)CC[C@]1(C)C2=CCC[C@@](C)(C=O)[C@H]2CC[C@H]1C [Compound 6, (+)-(4R, 5S, 8R, 9S)-18-Formyl-ent-halima-1(10),13-(E)-dien-15-oic acid] |  | > 100 | 3.23 ± 1.7 | 25.07 ± 0.14 |  |  |  |
| C/C(=C\C(=O)O)CC[C@@H]1[C@@]2(C)CCCC(C)(C)[C@@H]2CC[C@@]1(C)O [Compound 2, (+)-(5S, 8R, 9R, 10S)-Lab-13-en-8α-ol-15-oic acid] | weak inhibitory activity |  | 26.5 ± 3.1 | 13.3 ± 0.39 | weak inhibitory activity | > 100 |  |
| C/C(=C\C(=O)O)CC[C@H]1[C@](C)(O)[C@H](O)C[C@H]2C(C)(C)CCC[C@@]21C (relative stereo) [Compound 7, (-)-(5S*, 7R*, 8R*, 9R*, 10S*)-Lab-13-en-7α,8α-diol-15-oic acid] |  | > 100 | 4.71 ± 0.11 | 20.1 ± 1.73 |  |  |  |
| COc1ccc2c3c1O[C@H]1C[C@@H](O)C=C[C@@]31CCN(C)C2 [Gal, Galanthamine, reference compound] |  |  |  |  |  |  | 75.8 ± 1.74 |
